EP2435433B1, “(DIHYDRO)IMIDAZOISO[5,1-A]QUINOLINES AS FSH RECEPTOR AGONISTS FOR THE TREATMENT OF FERTILITY DISORDERS” (Merck Sharp & Dohme B.V., priority 2009, dated 2010)

Target: T1, human FSH receptor (Homo sapiens, UniProt P23945)
T1 construct: expressed in transfected cells; host or cells: Chinese Hamster Ovary (CHO) cells, stably transfected, cotransfected with CRE/promotor-firefly luciferase reporter
T1 sequence (P23945 18-695): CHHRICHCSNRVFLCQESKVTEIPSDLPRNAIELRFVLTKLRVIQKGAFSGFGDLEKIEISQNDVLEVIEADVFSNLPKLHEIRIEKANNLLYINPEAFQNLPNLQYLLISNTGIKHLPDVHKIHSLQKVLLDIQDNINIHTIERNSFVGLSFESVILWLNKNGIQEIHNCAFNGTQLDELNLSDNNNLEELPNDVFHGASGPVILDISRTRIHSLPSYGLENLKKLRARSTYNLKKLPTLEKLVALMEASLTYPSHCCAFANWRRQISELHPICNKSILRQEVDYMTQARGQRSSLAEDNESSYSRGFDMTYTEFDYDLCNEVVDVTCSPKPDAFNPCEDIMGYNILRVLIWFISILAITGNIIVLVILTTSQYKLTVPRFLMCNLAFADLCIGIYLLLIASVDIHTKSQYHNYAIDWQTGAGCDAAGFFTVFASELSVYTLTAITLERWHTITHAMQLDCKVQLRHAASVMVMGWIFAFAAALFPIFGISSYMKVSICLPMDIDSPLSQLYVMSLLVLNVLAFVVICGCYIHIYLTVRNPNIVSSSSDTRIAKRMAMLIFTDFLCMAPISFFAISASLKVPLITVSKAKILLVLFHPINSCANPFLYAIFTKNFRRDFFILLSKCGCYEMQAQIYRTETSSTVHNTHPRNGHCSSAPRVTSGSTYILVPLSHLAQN
Experiment: Agonistic activity of compounds at the human FSH receptor expressed in CHO cells, CRE/luciferase reporter (hFSHRago (CHO luc))
Assay type: cell-based
Conditions: CHO cells stably transfected with the human FSH receptor and CRE/firefly luciferase reporter; 4 hours of incubation; half-maximal stimulation relative to the compound's own maximal effect; read-out: hFSHRago (CHO luc) EC50
Text: The term EC50 means the concentration of the test compound that elicits half-maximal (50 %) stimulation compared to the compound's maximally attainable effect. The values can be determined e.g. in a cell line transfected with a FSH receptor gene and cotransfected with a cAMP responsive element/promoter directing the expression of a reporter gene. Values can be determined using a software program such as MathIQ (version 2.0, ID Business Solutions Limited).
Agonistic activity of the compounds at the human FSH receptor was determined in Chinese Hamster Ovary (CHO) cells stably transfected with the human FSH receptor and cotransfected with a cAMP responsive element (CRE)/promotor directing the expression of a firefly luciferase reporter gene. Binding of the compounds to the Gs protein-coupled FSH receptor will result in an increase of cAMP, which in turn will induce an increased transactivation of the luciferase reporter. Cells (7,500 cells/well of a 384 well plate) were incubated in Dulbecco' minimal essential F12 modified medium (Invitrogen), supplemented with 1 µg/ml bovine insulin, 5 µg/ml human apo-transferrin, 80 U/ml penicillin G and 80 µg/ml streptomycin with the test compounds (concentration between 0.0316 nM and 10.0 µM) in duplicate in a humidified atmosphere (95%) at 5-7% CO2 and 37°C. The final concentration of DMSO was 1%. After 4 hours of incubation, plates were allowed to adjust to room temperature for 1 hour. Then, Luclite (PerkinElmer) solution was added to the wells and cells were allowed to lyse for at least 1 hour at room temperature. Subsequently, luciferase activity was measured in a luminescence counter. The signal is expressed as counts per second (cps). The EC50 (concentration of the test compound that elicits half-maximal (50 %) luciferase stimulation compared to the compound's maximally attainable effect) and efficacy values (maximal effect of the test compound as percentage of the maximal effect of recombinant human FSH) of the compounds were determined using the software program MathIQ (version 2.0, ID Business Solutions Limited). EC50 data are indicated at the synthesis examples.

EC50	SMILES
18 nM	COc1cc2c(cc1C(=O)NC(C)C)-c1c(-c3cccs3)nc(C(=O)N(C)C(C)(C)C)n1CC2 [Example 5, 8-Methoxy-1-thiophen-2-yl-5,6-dihydro-imidazo[5,1-a]isoquinoline-3,9-dicarboxylic acid 3-(tert-butyl-methyl-amide) 9-isopropylamide]
740 nM	COc1cc2c(cc1N)-c1c(-c3cccs3)nc(C(=O)N(C)C(C)(C)C)n1CC2 [Example 6b, 9-Amino-8-methoxy-1-thiophen-2-yl-5,6-dihydro-imidazo[5,1-a]isoquinoline-3-carboxylic acid tert-butyl-methyl-amide]
35 nM	COc1cc2c(cc1NC(=O)C(C)O)-c1c(-c3cccs3)nc(C(=O)N(C)C(C)(C)C)n1CC2 (stereo not shown) [Example 7, 9-(2-Hydroxy-propionylamino)-8-methoxy-1-thiophen-2-yl-5,6-dihydro-imidazo[5,1-a]isoquinoline-3-carboxylic acid tert-butyl-methyl-amide]
49 nM	COc1cc2c(cc1NC(=O)[C@H](C)N)-c1c(-c3cccs3)nc(C(=O)N(C)C(C)(C)C)n1CC2 [Example 8, 9-((S)-2-Amino-propionylamino)-8-methoxy-1-thiophen-2-yl-5,6-dihydro-imidazo[5,1-a]isoquinoline-3-carboxylic acid tert-butyl-methyl-amide]
224 nM	COc1cc2c(cc1NC(=O)c1cccnc1)-c1c(-c3cccs3)nc(C(=O)N(C)C(C)(C)C)n1CC2 [Example 9, 8-Methoxy-9-[(pyridine-3-carbonyl)-amino]-1-thiophen-2-yl-5,6-dihydro-imidazo[5,1-a]isoquinoline-3-carboxylic acid tert-buyl-methyl-amide]
12 nM	COc1cc2c(cc1NC(=O)c1nccs1)-c1c(-c3cccs3)nc(C(=O)N(C)C(C)(C)C)n1CC2 [Example 10, 8-Methoxy-9-[(thiazole-2-carbonyl)-amino]-1-thiophen-2-yl-5,6-dihydro-imidazo[5,1-a]isoquinoline-3-carboxylic acid tert-butyl-methyl-amide]
13 nM	COc1cc2c(cc1NC(=O)c1cscn1)-c1c(-c3cccs3)nc(C(=O)N(C)C(C)(C)C)n1CC2 [Example 11, 8-Methoxy-9-[(thiazole-4-carbonyl)-amino]-1-thiophen-2-yl-5,6-dihydro-imidazo[5,1-a]isoquinoline-3-carboxylic acid tert-butyl-methyl-amide]
15 nM	COc1cc2c(cc1NC(=O)c1csnn1)-c1c(-c3cccs3)nc(C(=O)N(C)C(C)(C)C)n1CC2 [Example 12, 8-Methoxy-9-[([1,2,3]thiadiazole-4-carbonyl)-amino]-1-thiophen-2-yl-5,6-dihydro-imidazo[5,1-a]isoquinoline-3-carboxylic acid tert-butyl-methyl-amide]
26 nM	CCN(C)CC(=O)Nc1cc2c(cc1OC)CCn1c(C(=O)N(C)C(C)(C)C)nc(-c3cccs3)c1-2 [Example 13b, 9-[2-(Ethyl-methyl-amino)-acetylamino]-8-methoxy-1-thiophen-2-yl-5,6-dihydro-imidazo[5,1-a]isoquinoline-3-carboxylic acid tert-butyl-methyl-amide]
10 nM	COc1cc2c(cc1NC(=O)CN1CCOCC1)-c1c(-c3cccs3)nc(C(=O)N(C)C(C)(C)C)n1CC2 [Example 14, 8-Methoxy-9-(2-morpholin-4-yl-acetylamino)-1-thiophen-2-yl-5,6-dihydro-imidazo[5,1-a]isoquinoline-3-carboxylic acid tert-butyl-methyl-amide]
9 nM	COc1cc2ccn3c(C(=O)N(C)C(C)(C)C)nc(-c4cccs4)c3c2cc1C=C(C)C [Example 16e, 8-Methoxy-9-(2-methyl-propenyl)-1-thiophen-2-yl-imidazo[5,1-a]isoquinoline-3-carboxylic acid tert-butyl-methyl-amide]
23 nM	COc1cc2ccn3c(C(=O)N(C)C(C)(C)C)nc(-c4cccs4)c3c2cc1-c1cnn(C)c1 [Example 17b, 8-Methoxy-9-(1-methyl-1H-pyrazol-4-yl)-1-thiophen-2-yl-imidazo[5,1-a]isoquinoline-3-carboxylic acid tert-butyl-methyl-amide]
8 nM	COc1cc2c(cc1CC(C)C)-c1c(-c3cccs3)nc(C(=O)N(C)C(C)(C)C)n1CC2 [Example 18k, 9-Isobutyl-8-methoxy-1-thiophen-2-yl-5,6-dihydro-imidazo[5,1-a]isoquinoline-3-carboxylic acid tert-butyl-methyl-amide]
76 nM	C=Cc1cc2c(cc1CC(C)C)-c1c(-c3cccs3)nc(C(=O)N(C)C(C)(C)C)n1CC2 [Example 19d, 9-Isobutyl-1-thiophen-2-yl-8-vinyl-5,6-dihydro-imidazo[5,1-a]isoquinoline-3-carboxylic acid tert-butyl-methyl-amide]
200 nM	CCc1cc2c(cc1CC(C)C)-c1c(-c3cccs3)nc(C(=O)N(C)C(C)(C)C)n1CC2 [Example 19e, 8-Ethyl-9-isobutyl-1-thiophen-2-yl-5,6-dihydro-imidazo[5,1-a]isoquinoline-3-carboxylic acid tert-butyl-methyl-amide]
407 nM	CC(C)Cc1ccc2c(c1)-c1c(-c3cccs3)nc(C(=O)N(C)C(C)(C)C)n1CC2 [Example 20b, 9-Isobutyl-1-thiophen-2-yl-5,6-dihydro-imidazo[5,1-a]isoquinoline-3-carboxylic acid tert-butyl-methyl-amide]
0.9 nM	CCN(C(=O)c1nc(-c2cccs2)c2n1CCc1cc(OC)c(OC(C)C)cc1-2)C(C)(C)C [Example 21f, 9-Isopropoxy-8-methoxy-1-thiophen-2-yl-5,6-dihydro-imidazo[5,1-a]isoquinoline-3-carboxylic acid tert-butyl-ethyl-amide]
3 nM	COc1cc2c(cc1OC(C)C)-c1c(-c3cccs3)nc(C(=O)N3CCCC3(C)C)n1CC2 [Example 22, (2,2-Dimethyl-pyrrolidin-1-yl)-(9-isopropoxy-8-methoxy-1-thiophen-2-yl-5,6-dihydro-imidazo[5,1-a]isoquinolin-3-yl)-methanone]
63 nM	CCC1CCCN1C(=O)c1nc(-c2cccs2)c2n1CCc1cc(OC)c(OC(C)C)cc1-2 (stereo not shown) [Example 23, (2-Ethyl-pyrrolidin-1-yl)-(9-isopropoxy-8-methoxy-1-thiophen-2-yl-5,6-dihydro-imidazo[5,1-a]isoquinolin-3-yl)-methanone]
333 nM	COc1cc2c(cc1OC)-c1c(-c3cccs3)nc(C(=O)N3CCCC3C)n1CC2 (stereo not shown) [Example 24c, (2-Methyl-pyrrolidin-1-yl)-(9-methoxy-8-methoxy-1-thiophen-2-yl-5,6-dihydro-imidazo[5,1-a]isoquinolin-3-yl)-methanone]
138 nM	COc1cc2c(cc1OC)-c1c(-c3cccs3)nc(C(=O)N(CCO)C(C)C)n1CC2 [Example 25, 8,9-Dimethoxy-1-thiophen-2-yl-5,6-dihydro-imidazo[5,1-a]isoquinoline-3-carboxylic acid (2-hydroxy-ethyl)-isopropyl-amide]
314 nM	COc1cc2c(cc1OC)-c1c(-c3cccs3)nc(C(=O)N3CCCOCC3)n1CC2 [Example 26, (8,9-Dimethoxy-1-thiophen-2-yl-5,6-dihydro-imidazo[5,1-a]isoquinolin-3-yl)-[1,4]oxazepan-4-yl-methanone]
